The values that follow are results of earlier work, collected in patent US5173423A, “Process for breeding a glabrous variety of rice crop and a glabrous plant” (Sumitomo Chemical Company Limited, priority 1990, dated 1992).

For this data set, the system named is Ginbozu. As to conditions: mutation breeding; induced variation: chlorosis; variety Ginbozu.

Consider `O=c1[nH]cc(Br)c(=O)[nH]1` [5-BU, 5-bromouracil], for which the “Frequency of occurrence of variants” value is listed as 1.0%.

With `Nc1ncc2[nH]cnc2n1` [2-AP, 2-aminopurine], the “Frequency of occurrence of variants” value is reported as 0.57%.
